Key:
Blood [1] = test: Retention time in human whole blood in presence of 0.1% formic acid in water at 20 uM by LC-MS/MS method; format: ADME, tissue-based
Blood [2] = test: Retention time in rat whole blood in presence of 0.1% formic acid in water at 20 uM by LC-MS/MS method; format: ADME, tissue-based
Blood [3] = test: Retention time in human whole blood in presence of 0.1% formic acid in acetonitrile at 20 uM by LC-MS/MS method; format: ADME, tissue-based
Blood [4] = test: Retention time in rat whole blood in presence of 0.1% formic acid in acetonitrile at 20 uM by LC-MS/MS method; format: ADME, tissue-based
Blood [5] = test: Drug metabolism in human whole blood treated with 20 uM RRx-001 assessed as compound formation by LC-MS/MS method; format: ADME, tissue-based
Blood [6] = test: Drug metabolism in rat whole blood treated with 20 uM RRx-001 assessed as compound formation by LC-MS/MS method; format: ADME, tissue-based
[7] = Ratio of drug level in rat blood to rat plasma at 1 uM after 30 mins; format: ADME, cell-free; details: whole blood
[8] = Ratio of drug level in dog blood to dog plasma at 1 uM after 30 mins; format: ADME, Canis lupus familiaris; details: whole blood
[9] = Ratio of drug level in monkey blood to monkey plasma at 1 uM after 30 mins; format: ADME, Macaca mulatta; details: rhesus monkey, whole blood
[10] = Ratio of drug level in human blood to human plasma at 1 uM after 30 mins; format: ADME; details: whole blood
[11] = Ratio of drug level in rat blood to rat plasma at 20 uM after 30 mins; format: ADME, cell-free; details: whole blood
[12] = Ratio of drug level in monkey blood to monkey plasma at 20 uM after 30 mins; format: ADME, Macaca mulatta; details: rhesus monkey, whole blood
[13] = Ratio of drug level in human blood to human plasma at 20 uM after 30 mins; format: ADME; details: whole blood
[14] = Binding affinity to rat hemoglobin assessed as protein bound compound level at 1 uM; format: ADME; details: read-out: PB (converted)
[15] = Binding affinity to dog hemoglobin assessed as protein bound compound level at 1 uM; format: ADME, Canis lupus familiaris; details: read-out: PB (converted)
[16] = Binding affinity to monkey hemoglobin assessed as protein bound compound level at 1 uM; format: ADME, Macaca mulatta; details: rhesus monkey, read-out: PB (converted)
[17] = Binding affinity to human hemoglobin assessed as protein bound compound level at 1 uM; format: ADME; details: read-out: PB (converted)
[18] = Binding affinity to rat hemoglobin assessed as protein bound compound level at 20 uM; format: ADME; details: read-out: PB (converted)
[19] = Ratio of drug level in dog blood to dog plasma at 20 uM after 30 mins; format: ADME, Canis lupus familiaris; details: whole blood
[20] = Half life in Wistar Hanover rat blood at 10 mg/kg, iv administered as single dose; format: ADME, organism-based; parameters: dose 10 mg/kg, route intravenous; details: whole blood
Blood [21] = test: AUC (0 to t) in Wistar Hanover rat blood at 10 mg/kg, iv administered as single dose; format: ADME, organism-based; parameters: dose 10 mg/kg, route intravenous; details: in vivo
[22] = Half life in Wistar Hanover rat plasma at 10 mg/kg, iv administered as single dose; format: ADME, organism-based; parameters: dose 10 mg/kg, route intravenous
[23] = Volume of distribution in Wistar Hanover rat blood at 10 mg/kg, iv administered as single dose; format: ADME, organism-based; parameters: dose 10 mg/kg, route intravenous; details: whole blood
Plasma [24] = test: AUC (0 to t) in Wistar Hanover rat plasma at 10 mg/kg, iv administered as single dose; format: ADME, organism-based; parameters: dose 10 mg/kg, route intravenous; details: in vivo
Plasma [25] = test: AUC (0 to infinity) in Wistar Hanover rat plasma at 10 mg/kg, iv administered as single dose; format: ADME, organism-based; parameters: time infinity, dose 10 mg/kg, route intravenous; details: in vivo
[26] = Volume of distribution in Wistar Hanover rat plasma at 10 mg/kg, iv administered as single dose; format: ADME, organism-based; parameters: dose 10 mg/kg, route intravenous
[27] = Drug excretion in Wistar Hanover rat feces at 10 mg/kg, iv administered as single dose measured on day 2; format: ADME, organism-based; parameters: dose 10 mg/kg, route intravenous; details: faeces, read-out: Drug excretion
[28] = Drug excretion in Wistar Hanover rat feces at 10 mg/kg, iv administered as single dose measured on day 1; format: ADME, organism-based; parameters: dose 10 mg/kg, route intravenous; details: faeces, read-out: Drug excretion
[29] = Drug excretion in Wistar Hanover rat urine at 10 mg/kg, iv administered as single dose after 168 hrs; format: ADME, organism-based; parameters: dose 10 mg/kg, route intravenous; details: read-out: Drug excretion
[30] = Drug excretion in Wistar Hanover rat urine at 10 mg/kg, iv administered as single dose after 0 to 8 hrs; format: ADME, organism-based; parameters: dose 10 mg/kg, route intravenous; details: read-out: Drug excretion
Nucleic Acid = test: Ratio of drug level in blood to plasma in Wistar Hanover rat at 10 mg/kg, iv administered as single dose after 168 hrs; format: ADME, organism-based; parameters: dose 10 mg/kg, route intravenous; details: in vivo
[31] = Ratio of drug level in blood to plasma in Wistar Hanover rat at 10 mg/kg, iv administered as single dose after 0.083 hrs; format: ADME, organism-based; parameters: dose 10 mg/kg, route intravenous; details: whole blood and plasma
[32] = Drug excretion in Wistar Hanover rat feces at 10 mg/kg, iv administered as single dose measured on day 7; format: ADME, organism-based; parameters: dose 10 mg/kg, route intravenous; details: faeces, read-out: Drug excretion
Blood [33] = test: Drug level in Wistar Hanover rat blood at 10 mg/kg, iv administered as single dose after 168 hrs relative to total radioactivity; format: ADME, organism-based; parameters: dose 10 mg/kg, route intravenous; details: in vivo
[34] = Drug level in Wistar Hanover rat bile at 10 mg/kg, iv administered as single dose after 24 hrs; format: ADME, organism-based; parameters: dose 10 mg/kg, route intravenous; details: in vivo
Stomach = test: Drug level in Wistar Hanover rat stomach at 10 mg/kg, iv administered as single dose after 24 hrs; format: ADME, organism-based; parameters: dose 10 mg/kg, route intravenous; details: in vivo
Blood [35] = test: Drug level in Wistar Hanover rat blood at 10 mg/kg, iv administered as single dose after 24 hrs; format: ADME, organism-based; parameters: dose 10 mg/kg, route intravenous; details: in vivo
Blood [36] = test: Drug level in Wistar Hanover rat blood at 10 mg/kg, iv administered as single dose after 168 hrs; format: ADME, organism-based; parameters: dose 10 mg/kg, route intravenous; details: in vivo
[37] = Stability in water; format: physicochemical; details: buffer
[38] = Stability in pH 7.0 buffer; format: physicochemical
[39] = Binding affinity to monkey hemoglobin assessed as protein bound compound level at 20 uM; format: ADME, Macaca mulatta; details: rhesus monkey, read-out: PB (converted)
[40] = Binding affinity to human hemoglobin assessed as protein bound compound level at 20 uM; format: ADME; details: read-out: PB (converted)
Blood [41] = test: Retention time in rat whole blood at 20 uM by LC-MS/MS method; format: ADME, tissue-based
Blood [42] = test: Retention time in human whole blood at 20 uM by LC-MS/MS method; format: ADME, tissue-based
Blood [43] = test: Drug metabolism in human whole blood assessed as [(S)-2-amino-5-(((R)-1-((carboxymethyl)amino)-3-((2-(3,3-dinitroazetidin-1-yl)-2-oxoethyl)thio)-1-oxopropan-2-yl)amino)-5-oxopentanoic acid] formation at 20 uM by LC-MS/MS method; format: ADME, tissue-based
Blood [44] = test: Drug metabolism in rat whole blood assessed as [(S)-2-amino-5-(((R)-1-((carboxymethyl)amino)-3-((2-(3,3-dinitroazetidin-1-yl)-2-oxoethyl)thio)-1-oxopropan-2-yl)amino)-5-oxopentanoic acid] formation at 20 uM by LC-MS/MS method; format: ADME, tissue-based
Blood [45] = test: Drug metabolism in human whole blood assessed as (R)-2-amino-3-((2-(3,3-dinitroazetidin-1-yl)-2-oxoethyl)thio)propanoic acid] formation at 20 uM by LC-MS/MS method; format: ADME, tissue-based
Blood [46] = test: Drug metabolism in rat whole blood assessed as (R)-2-amino-3-((2-(3,3-dinitroazetidin-1-yl)-2-oxoethyl)thio)propanoic acid] formation at 20 uM by LC-MS/MS method; format: ADME, tissue-based
Blood [47] = test: Drug metabolism in human whole blood assessed as [(S)-2-amino-5-(((R)-1-((carboxymethyl)amino)-3-((2-(3-nitroazetidin-1-yl)-2-oxoethyl)thio)-1-oxopropan-2-yl)amino)-5-oxopentanoic acid] formation at 20 uM by LC-MS/MS method; format: ADME, tissue-based
Blood [48] = test: Drug metabolism in rat whole blood assessed as [(S)-2-amino-5-(((R)-1-((carboxymethyl)amino)-3-((2-(3-nitroazetidin-1-yl)-2-oxoethyl)thio)-1-oxopropan-2-yl)amino)-5-oxopentanoic acid] formation at 20 uM by LC-MS/MS method; format: ADME, tissue-based
Blood [49] = test: Drug metabolism in human whole blood assessed as [(R)-2-amino-3-((2-(3-nitroazetidin-1-yl)-2-oxoethyl)thio)propanoic acid] formation at 20 uM by LC-MS/MS method; format: ADME, tissue-based
Blood [50] = test: Drug metabolism in rat whole blood assessed as [(R)-2-amino-3-((2-(3-nitroazetidin-1-yl)-2-oxoethyl)thio)propanoic acid] formation at 20 uM by LC-MS/MS method; format: ADME, tissue-based
Blood [51] = test: Drug metabolism in human whole blood assessed as [(R)-2-(2-amino-3-((2-(3,3-dinitroazetidin-1-yl)-2-oxoethyl)thio)propanamido)acetic acid] formation at 20 uM by LC-MS/MS method; format: ADME, tissue-based
Blood [52] = test: Drug metabolism in rat whole blood assessed as [(R)-2-(2-amino-3-((2-(3,3-dinitroazetidin-1-yl)-2-oxoethyl)thio)propanamido)acetic acid] formation at 20 uM by LC-MS/MS method; format: ADME, tissue-based
Blood [53] = test: Drug metabolism in human whole blood assessed as [(S)-2-amino-5-(((R)-1-((carboxymethyl)amino)-1-oxo-3-((2-oxo-2-(3-oxoazetidin-1-yl)ethyl)thio)propan-2-yl)amino)-5-oxopentanoic acid] formation at 20 uM by LC-MS/MS method; format: ADME, tissue-based
Blood [54] = test: Drug metabolism in rat whole blood assessed as [(S)-2-amino-5-(((R)-1-((carboxymethyl)amino)-1-oxo-3-((2-oxo-2-(3-oxoazetidin-1-yl)ethyl)thio)propan-2-yl)amino)-5-oxopentanoic acid] formation at 20 uM by LC-MS/MS method; format: ADME, tissue-based
Blood [55] = test: Drug metabolism in human whole blood assessed as [(S)-2-amino-5-(((R)-1-((carboxymethyl)amino)-3-((2-(3-(hydroxyimino)azetidin-1-yl)-2-oxoethyl)thio)-1-oxopropan-2-yl)amino)-5-oxopentanoic acid] formation at 20 uM by LC-MS/MS method; format: ADME, tissue-based
Blood [56] = test: Drug metabolism in rat whole blood assessed as [(S)-2-amino-5-(((R)-1-((carboxymethyl)amino)-3-((2-(3-(hydroxyimino)azetidin-1-yl)-2-oxoethyl)thio)-1-oxopropan-2-yl)amino)-5-oxopentanoic acid] formation at 20 uM by LC-MS/MS method; format: ADME, tissue-based

## N[C@@H](CSCC(=O)N1CC([N+](=O)[O-])([N+](=O)[O-])C1)C(=O)NCC(=O)O
Blood [1]
  Retention_time: 8 min
Blood [2]
  Retention_time: 8 min
Blood [3]
  Retention_time: 6.2 min
Blood [4]
  Retention_time: 6.2 min
Blood [5]
  Drug metabolism: metabolite_detected
Blood [6]
  Drug metabolism: metabolite_detected

## O=C(CBr)N1CC([N+](=O)[O-])([N+](=O)[O-])C1 [NIBROZETONE]
[7]
  blood plasma ratio at 0.5 h, 1 µM: 2.1
[8]
  blood plasma ratio at 0.5 h, 1 µM: 0.83
[9]
  blood plasma ratio at 0.5 h, 1 µM: 0.82
[10]
  blood plasma ratio at 0.5 h, 1 µM: 1
[11]
  blood plasma ratio at 0.5 h, 20 µM: 4
[12]
  blood plasma ratio at 0.5 h, 20 µM: 1.5
[13]
  blood plasma ratio at 0.5 h, 20 µM: 0.99
[14]
  fraction unbound at 1 µM: 0.31
[15]
  fraction unbound at 1 µM: 0.77
[16]
  fraction unbound at 1 µM: 0.902
[17]
  fraction unbound at 1 µM: 0.71
[18]
  fraction unbound at 20 µM: 0.21
[19]
  blood plasma ratio at 0.5 h, 20 µM: 1.2
[20]
  half-life: > 168 h
Blood [21]
  AUCt: 14900000 ngequiv.hr/g
[22]
  half-life: 66.1 h
[23]
  Vd: 0.084 L/kg
Plasma [24]
  AUCt: 160000 ngequiv.hr/g
Plasma [25]
  AUC: 200000 ngequiv.hr/g
[26]
  Vd: 0.926 L/kg
[27]
  dose excreted: 0.3%
[28]
  dose excreted: 1.5%
[29]
  dose excreted at 168 h: 36.3%
[30]
  dose excreted: 26%
Nucleic Acid
  Ratio: 222
[31]
  blood plasma ratio at 0.083 h: 12.4
[32]
  dose excreted: 0.06%
Blood [33]
  Drug uptake: 61.8%
[34]
  Drug uptake: Not Active
Stomach
  Drug uptake: Not Active
Blood [35]
  Drug uptake: 76500 ngequiv/g
Blood [36]
  Drug uptake: 69600 ngequiv/g
[37]
  Stability: Stable
[38]
  Stability: Stable
[39]
  fraction unbound at 20 µM: 0.8
[40]
  fraction unbound at 20 µM: 0.78
Blood [41]
  Retention_time: 15.4 min
Blood [42]
  Retention_time: 15.4 min
Blood [1]
  Retention_time: 12.8 min
Blood [2]
  Retention_time: 12.8 min
Blood [3]
  Retention_time: 15.1 min
Blood [4]
  Retention_time: 15.1 min
Blood [43]
  Drug metabolism: metabolite_detected
Blood [44]
  Drug metabolism: metabolite_detected
Blood [45]
  Drug metabolism: metabolite_detected
Blood [46]
  Drug metabolism: metabolite_detected
Blood [47]
  Drug metabolism: metabolite_detected
Blood [48]
  Drug metabolism: metabolite_detected
Blood [49]
  Drug metabolism: metabolite_detected
Blood [50]
  Drug metabolism: metabolite_detected
Blood [51]
  Drug metabolism: metabolite_detected
Blood [52]
  Drug metabolism: metabolite_detected
Blood [53]
  Drug metabolism: metabolite_detected
Blood [54]
  Drug metabolism: metabolite_detected
Blood [55]
  Drug metabolism: metabolite_detected
Blood [56]
  Drug metabolism: metabolite_detected
